# Legend:
# [1] = target: T1, connexin45 (mCx45) hemichannel (Mus musculus, UniProt P28229); assay: ethidium uptake in HeLa-mCx45 cells, […] streptomycin; format: cell-based
# T1 construct: gene Gjc1; mouse Cx45 (NM_001159383.1) stably expressed in HeLa cells
# [2] = target: T2, connexin43 (mCx43) hemichannel (Mus musculus, UniProt P23242); assay: ethidium uptake in HeLa-mCx43 cells, […] streptomycin; format: cell-based
# T2 construct: gene Gja1; mouse Cx43 (NM_010288.3) stably expressed in HeLa cells
# T2 sequence (P23242 2-382): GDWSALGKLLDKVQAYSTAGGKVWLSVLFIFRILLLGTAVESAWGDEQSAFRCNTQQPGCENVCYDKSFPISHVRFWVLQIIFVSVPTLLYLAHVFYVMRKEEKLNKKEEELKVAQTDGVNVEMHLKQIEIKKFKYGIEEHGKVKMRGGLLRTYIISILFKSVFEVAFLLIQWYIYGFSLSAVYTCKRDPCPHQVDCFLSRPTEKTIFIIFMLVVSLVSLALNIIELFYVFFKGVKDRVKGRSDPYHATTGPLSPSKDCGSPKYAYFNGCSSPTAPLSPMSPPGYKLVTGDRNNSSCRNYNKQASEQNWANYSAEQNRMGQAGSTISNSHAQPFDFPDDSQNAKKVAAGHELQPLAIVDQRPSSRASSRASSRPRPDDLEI
# T1 sequence (P28229 whole entry): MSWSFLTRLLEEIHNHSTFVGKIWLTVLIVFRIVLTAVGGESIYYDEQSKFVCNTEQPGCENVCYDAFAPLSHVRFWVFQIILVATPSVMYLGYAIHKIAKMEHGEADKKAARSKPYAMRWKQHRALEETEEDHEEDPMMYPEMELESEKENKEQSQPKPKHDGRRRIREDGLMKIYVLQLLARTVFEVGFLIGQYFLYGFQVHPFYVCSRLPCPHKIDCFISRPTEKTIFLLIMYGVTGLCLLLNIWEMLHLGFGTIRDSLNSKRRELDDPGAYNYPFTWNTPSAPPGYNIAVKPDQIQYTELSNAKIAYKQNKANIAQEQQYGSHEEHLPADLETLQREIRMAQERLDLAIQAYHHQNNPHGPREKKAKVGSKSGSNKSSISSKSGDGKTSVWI
smiles,measurement,setting,value
[H]/N=C(/N)N[C@H]1[C@H](O)[C@@H](O)[C@H](O[C@@H]2O[C@@H](C)[C@](O)(C=O)[C@H]2O[C@@H]2O[C@@H](CO)[C@H](O)[C@@H](O)[C@@H]2NC)[C@@H](N/C(N)=N\[H])[C@@H]1O [streptomycin],"ethidium uptake in HeLa-mCx45 cells, 200 μM streptomycin",[1],"In HeLa-mCx45 cells, Etd uptake was reduced to values below the ones recorded under control condition"
same,"ethidium uptake in HeLa-mCx43 cells, 200 μM streptomycin",[2],"also inhibited the Etd uptake of HeLa-rCx26 (Figures 2E,F), -mCx43 and -mCx45 cells in DCFS"

# — PMC4154469, “Extracellular gentamicin reduces the activity of connexin hemichannels and interferes with purinergic Ca^2+ signaling in HeLa cells” (Frontiers in Cellular Neuroscience, 2014)
